From US20230123334A1, “AMINO LIPID COMPOUND, PREPARATION METHOD THEREFOR, AND APPLICATION THEREOF” (SHENZHEN SHENXIN BIOTECHNOLOGY CO., LTD., priority 2020, published 2023)

Assays:
HEK293 cells [1] = test: Preliminary screening as DNA vectors, GFP transfection of HEK293 cells; type: cell-based; conditions: HEK293 cells; lipid/DOPE liposome with 75 ng plasmid DNA (psin-EGFP-IRES-Puro); number of cells expressing GFP divided by total number of nuclei (Hoechst)
Summary of the method: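 HEK293 cells in DMEM/10% FBS transfected with 75 ng EGFP plasmid per well complexed with amino lipid/DOPE liposomes in pH 5.6 sodium acetate. Hoechst nuclear stain added 20-24 h post-transfection, then cells cultured another 20-24 h. Confocal imaging gives GFP-positive cells as % of total nuclei.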

HEK293 cells [2] = test: Preliminary screening as mRNA vectors, EGFP mRNA transfection of HEK293 cells; type: cell-based; conditions: HEK293 cells, 96-well plates, EGFP mRNA 50 ng per well; percentage of GFP fluorescent cells relative to total number of cells (Hoechst)
Summary of the method: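 HEK293 cells in DMEM plus 10% FBS transfected in 96-well format with 50 ng EGFP mRNA per well; Lipofectamine2000 served as positive control. Read-out is the percentage of GFP-fluorescent cells among total cells, counted by Hoechst nuclear stain.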

SMILES | Absolute DNA transfection efficiency in HEK293 cells (HEK293 cells [1]) | Absolute mRNA transfection efficiency in HEK293 cells (HEK293 cells [2])
CCCCCCCCCCCCNc1nc(NCCCCCCCCC)nc(NCCN(CC)CC)n1 [Compound N9N12D7] | 0.0% | 0.0%
CCCCCCCCCCCCCCCNc1nc(NCCCCCCC)nc(NCCCN(C)C)n1 [Compound N7N15D6] | 1.6% | 1.2%
CCCCCCCCCCCNc1nc(NCCCCCCCCCCC)nc(NCCCN2CCN(C)CC2)n1 [Compound N11N11D9] | 0.0% | 0.3%
CCCCCCCCCCCCCNc1nc(NCCCCCCCCCCCC)nc(NCCN2CCCCC2)n1 [Compound N12N13D4] | 0.0% | 0.0%
CCCCCCCCCCCCCCCCSc1nc(NCCN2CCCCC2)nc(SCCCCCCCCCCCCCC)n1 [Compound S14S16D4] | 0.6% | 0.0%
CCCCCCNc1nc(NCCCCCC)nc(NCCN(CC)CC)n1 [Compound N6N6D7] | 0.0% | 0.0%
CCCCCCCCCCCCCCCCNc1nc(NCCCCCCC)nc(NCCN2CCCCC2)n1 [Compound N7N16D4] | 0.0% | 0.0%
CCCCCCCCCCCCCCCCCCNc1nc(NCCCCCCCCCCCC)nc(NCC2CCN(C)CC2)n1 [Compound N12N18D10] | 0.0% | 1.0%
CCCCCCCCCCCCCCCCCCSc1nc(NCCN(C)C)nc(SCCCCCCCCCCCCCC)n1 [Compound S14S18D1] | 0.0% | 0.0%
CCCCCCCCCCCCCCCCSc1nc(NCCN2CCOCC2)nc(SCCCCCCCCCC)n1 [Compound S10S16D2] | 0.1% | 0.3%
CCCCCCCCCCCCCCCNc1nc(NCCCCCCC)nc(NCC2CCN(C)CC2)n1 [Compound N7N15D10] | 0.6% | 2.5%
CCCCCCCCCCCCCCCCCCSc1nc(NCCN(C)C)nc(SCCCCCCCCCCCC)n1 [Compound S12S18D1] | 0.0% | 0.0%
CCCCCCCCCCCCNc1nc(NCCCCCC)nc(NCCN2CCOCC2)n1 [Compound N6N12D2] | 0.0% | 0.0%
CCCCCCCCCCCCCNc1nc(NCCCCCCCCCCCC)nc(NCC2CCN(C)CC2)n1 [Compound N12N13D10] | 0.2% | 0.2%
CCCCCCCCCCCNc1nc(NCCCCCCCC)nc(NCCN(CC)CC)n1 [Compound N8N11D7] | 0.0% | 0.0%
CCCCCCCCCCSc1nc(NCCN2CCCCC2)nc(SCCCCCCCCCC)n1 [Compound S10S10D4] | 5.5% | 2.5%
CCCCCCCCCCCCCCCCCCNc1nc(NCCCCCCCCCCC)nc(NCCN(CC)CC)n1 [Compound N11N18D7] | 1.1% | 4.0%
CCCCCCCCCCCCSc1nc(NCCN2CCN(C)CC2)nc(SCCCCCCCCCCCC)n1 [Compound S12S12D5] | 0.4% | 3.1%
CCCCCCCCCCCCCCSc1nc(NCCCN2CCOCC2)nc(SCCCCCCCCCCC)n1 [Compound S11S14D8] | 8.8% | 4.2%
CCCCCCCCCCCCCCCCCCNc1nc(NCCCCCCCCCCCCCCC)nc(NCCN(CC)CC)n1 [Compound N15N18D7] | 3.2% | 8.3%
CCCCCCCCCCCCCCCCSc1nc(NCCN2CCN(C)CC2)nc(SCCCCCCCC)n1 [Compound S8S16D5] | 3.7% | 20.5%
CCCCCCCCCCCCN(CCCCCCCCCCCC)c1nc(NCCCCCCCC)nc(NCCCN2CCOCC2)n1 [N8^2N12D8] | 0.2% | 2.0%
CCCCCCCCCCCCCCCSc1nc(NCC2CCN(C)CC2)nc(SCCCCCCCCCCCC)n1 [Compound S12S15D10] | 9.9% | 43.1%
CCCCCCCCCCCCCCSc1nc(NCCCN(C)C)nc(SCCCCCCCCCCCCCC)n1 [Compound S14S14D6] | 0.2% | 0.2%

SMILES | Absolute DNA transfection efficiency in HEK293 cells (HEK293 cells [1]) | Absolute mRNA transfection efficiency in HEK293 cells (HEK293 cells [2])
CCCCCCCCCCCCNc1nc(NCCCCCCCC)nc(NCCCN2CCN(C)CC2)n1 [Compound N8N12D9] | 0.0% | 0.0%
CCCCCCCCCCCCCCSc1nc(NCCN2CCCC2)nc(SCCCCCCCCCCCC)n1 [Compound S12S14D3] | 6.5% | 6.3%
CCCCCCCCCCCSc1nc(NCCN2CCN(C)CC2)nc(SCCCCCCCCCC)n1 [Compound S10S11D5] | 8.4% | 61.1%
CCCCCCCCCCCCCCCCCCNc1nc(NCCCCCCCC)nc(NCCCN2CCN(C)CC2)n1 [Compound N8N18D9] | 1.2% | 0.0%
CCCCCCCCCCCCCCCCNc1nc(NCCCCCCCCCCCC)nc(NCCCN2CCOCC2)n1 [Compound N12N16D8] | 0.7% | 0.9%
CCCCCCCCCCCCNc1nc(NCC2CCN(C)CC2)nc(N(CCCCCCCCCCCC)CCCCCCCCCCCC)n1 [N12^2N12D10] | 0.7% | 0.9%
CCCCCCCCCCCCCCCSc1nc(NCC2CCN(C)CC2)nc(SCCCCCCCCCCCCCC)n1 [Compound S14S15D10] | 0.3% | 0.5%
CCCCCCCCCCCCCCCCSc1nc(NCCCN(C)C)nc(SCCCCCCCCCCCCCCCC)n1 [Compound S16S16D6] | 0.5% | 0.5%
CCCCCCCCCCCCCCCCCCSc1nc(NCCCN2CCN(C)CC2)nc(SCCCCCCCCCCCCCCC)n1 [Compound S15S18D9] | 0.3% | 0.0%
CCCCCCCCCCCCN(CCCCCCCCCCCC)c1nc(NCCN2CCCCC2)nc(N(CCCCCCCCCCCC)CCCCCCCCCCCC)n1 [2N12^2N12D4] | 0.0% | 2.6%
CCCCCCCCCCCCCCCCNc1nc(NCCCCCC)nc(NCCCN2CCOCC2)n1 [Compound N6N16D8] | 0.6% | 0.0%
CCCCCCCCCCCSc1nc(NCCN2CCOCC2)nc(SCCCCCCCCCC)n1 [Compound S10S11D2] | 2.2% | 0.6%
CCCCCCCCCCCCCNc1nc(NCCCCCCCCC)nc(NCCN2CCOCC2)n1 [Compound N9N13D2] | 0.0% | 0.6%
CCCCCCCCCCCCCCCCCCNc1nc(NCCCCCC)nc(NCCCN2CCOCC2)n1 [Compound N6N18D8] | 0.3% | 0.0%
CCCCCCCCCCCCCCCCCCNc1nc(NCCCCCCCCCCCCCCCCCC)nc(NCCN2CCOCC2)n1 [Compound N18N18D2] | 0.0% | 0.0%
CCCCCCCNc1nc(NCCCCCC)nc(NCCCN2CCOCC2)n1 [Compound N6N7D8] | 0.0% | 0.0%
CCCCCCCCCCCCCCCCNc1nc(NCCCCCCCCCCCCC)nc(NCCCN(C)C)n1 [Compound N13N16D6] | 1.0% | 3.8%
CCCCCCCCCCCCCCCSc1nc(NCCN2CCN(C)CC2)nc(SCCCCCCCCCCC)n1 [Compound S11S15D5] | 4.8% | 17.4%
CCCCCCCCCCCCCCCNc1nc(NCCCCCCCCC)nc(NCCN2CCN(C)CC2)n1 [Compound N9N15D5] | 0.2% | 1.8%
CCCCCCCCCCCNc1nc(NCCCCCCCCC)nc(NCCN2CCOCC2)n1 [Compound N9N11D2] | 0.0% | 0.3%
CCCCCCCCCCCCN(CCCCCCCCCCCC)c1nc(NCCCCCCCCC)nc(NCCN2CCN(C)CC2)n1 [N9^2N12D5] | 0.0% | 1.8%
CCCCCCCCCCCCCCCSc1nc(NCCN2CCN(C)CC2)nc(SCCCCCCCC)n1 [Compound S8S15D5] | 31.2% | 40.0%
CCCCCCCCCCCCCNc1nc(NCC2CCN(C)CC2)nc(N(CCCCCCCCCCCC)CCCCCCCCCCCC)n1 [N13^2N12D10] | 0.0% | 0.0%
